Assay results from ChEMBL document CHEMBL4765430, “Endeavors towards transformation of M. tuberculosis thymidylate kinase (MtbTMPK) inhibitors into potential antimycobacterial agents” (Eur J Med Chem, 2020).
Converted amounts (≈) assume the structure as drawn.

What was measured:
[1] = Inhibition of wild-type Mycobacterium tuberculosis thymidylate kinase expressed in Escherichia coli BLi5 competent cells using dTMP as substrate by lactate dehydrogenase, pyruvate kinase and nucleoside diphosphate kinase coupled spectrophotometric method
[2] = tested on: Mycobacterium tuberculosis; assay: Antitubercular activity against Mycobacterium tuberculosis H37Ra incubated for 7 to 14 days under 7H9/glucose medium; format: functional; settings: time 7-14 day
[3] = tested on: Mycobacterium tuberculosis; assay: Antitubercular activity against Mycobacterium tuberculosis H37Rv ATCC 27294 incubated for 7 to 14 days under 7H9/glucose medium; format: functional; settings: time 7-14 day
[4] = tested on: Mycobacterium tuberculosis; assay: Antitubercular activity against Mycobacterium tuberculosis H37Rv ATCC 27294 incubated for 7 to 14 days under GAST (Fe(+)) medium; format: functional; settings: time 7-14 day
[5] = tested on: Mycobacterium tuberculosis; assay: Antitubercular activity against Mycobacterium tuberculosis H37Rv ATCC 27294 incubated for 7 to 14 days under GAST (Fe(-)) medium; format: functional; settings: time 7-14 day
[6] = Cytotoxicity against human MRC5 cells measured after 24 hrs by neutral red uptake assay; format: cell-based
[7] = Stability of compound in pH 6.6 ammonium bicarbonate-formic acid buffer assessed as degradation measured up to 6 hrs by LC-MS analysis; format: physicochemical; settings: read-out: Drug degradation
[8] = Stability of compound in pH 6.6 ammonium bicarbonate-formic acid buffer assessed as parent compound remaining measured after 24 hrs by LC-MS analysis; format: physicochemical; settings: read-out: Stabilty
[9] = Stability of compound in pH 6.6 ammonium bicarbonate-formic acid buffer assessed as hydrolysis measured after 24 hrs by LC-MS analysis; format: physicochemical; settings: pH 6.6, 24 h

## Cc1cn(C2CCN(Cc3ccc(Oc4ccccc4)cc3)CC2)c(=O)[nH]c1=O
[1]; read-out: IC50
  IC50: 29 µM
[2]
  MIC99: > 64 µM

## Cc1cn(C2CCN(Cc3cc(Oc4ccc(C(=O)O)c(O)c4)c4ccccc4n3)CC2)c(=O)[nH]c1=O
[1]; read-out: IC50
  IC50: 1.3 µM
[3]
  MIC99: > 100 µM
[4]
  MIC99: 100 µM (≈ 50.3 µg/mL)
[5]
  MIC99: ≥ 100 µM
[6]
  CC50 at 24 h: > 64 µM

## CCc1nc2ccc(Cl)cn2c1C(=O)NCc1ccc(N2CCC(n3cc(C)c(=O)[nH]c3=O)CC2)cc1
[1]; read-out: IC50
  IC50: 47 µM
[3]
  MIC99: 4.7 µM (≈ 2.45 µg/mL)
[4]
  MIC99: 2.3 µM (≈ 1.2 µg/mL)
[6]
  CC50 at 24 h: > 64 µM

## Cc1cn(C2CCN(Cc3ccc4cccc(O)c4n3)CC2)c(=O)[nH]c1=O
[1]; read-out: IC50
  IC50: 23 µM
[3]
  MIC99: 75 µM (≈ 27.5 µg/mL)
[4]
  MIC99: > 100 µM
[5]
  MIC99: > 100 µM
[6]
  CC50 at 24 h: 54 µM

## Cc1cn(C2CCN(Cc3cc(OCCOC(=O)c4ccc(O)c(O)c4)c4ccccc4n3)CC2)c(=O)[nH]c1=O
[1]; read-out: IC50
  IC50: 0.14 µM
[3]
  MIC99: ≥ 100 µM
[4]
  MIC99: > 100 µM
[5]
  MIC99: > 100 µM
[6]
  CC50 at 24 h: 6.39 µM

## Cc1cn(C2CCN(Cc3ccc(CNC(=O)c4cc([N+](=O)[O-])cc([N+](=O)[O-])c4)cc3)CC2)c(=O)[nH]c1=O
[1]; read-out: IC50
  IC50: 48 µM
[3]
  MIC99: 9.4 µM (≈ 4.91 µg/mL)
[4]
  MIC99: 9.4 µM (≈ 4.91 µg/mL)
[5]
  MIC99: 6.25 µM (≈ 3.27 µg/mL)
[6]
  CC50 at 24 h: > 64 µM

## Cc1cn(C2CCN(Cc3cc(Oc4ccc(OC(=O)c5ccc(O)c(O)c5)cc4)c4ccccc4n3)CC2)c(=O)[nH]c1=O
[1]; read-out: IC50
  IC50: 0.18 µM
[7]
  degraded at 6 h: < 10%
[8]
  remaining at 24 h: > 70%
[9]
  Stabilty: Stable
[3]
  MIC99: > 50 µM
[4]
  MIC99: 37 µM (≈ 22 µg/mL)

## Cc1cn(C2CCN(Cc3cc(Oc4ccc(C(=O)NO)cc4)c4ccccc4n3)CC2)c(=O)[nH]c1=O
[1]; read-out: IC50
  IC50: 1 µM
[3]
  MIC99: > 50 µM
[4]
  MIC99: 50 µM (≈ 25.1 µg/mL)
[6]
  CC50 at 24 h: 32.2 µM

## CCc1nc2ccc(Cl)cn2c1C(=O)N1CCC(n2cc(C)c(=O)[nH]c2=O)CC1
[1]; read-out: IC50
  IC50: 879 µM
[3]
  MIC99: > 100 µM
[4]
  MIC99: > 100 µM
[5]
  MIC99: > 100 µM
[6]
  CC50 at 24 h: > 64 µM

## Cc1cn(C2CCN(Cc3cc(Oc4ccc(/C=N/NC(=S)S)c(O)c4)c4ccccc4n3)CC2)c(=O)[nH]c1=O
[1]; read-out: IC50
  IC50: 0.31 µM
[7]
  degraded at 6 h: < 10%
[8]
  remaining at 24 h: > 70%
[3]
  MIC99: > 100 µM
[4]
  MIC99: 100 µM (≈ 57.7 µg/mL)
[5]
  MIC99: 25 µM (≈ 14.4 µg/mL)
[6]
  CC50 at 24 h: 1.45 µM

## Cc1cn(C2CCN(Cc3cc(NCCOC(=O)c4ccc(O)c(O)c4)c4ccccc4n3)CC2)c(=O)[nH]c1=O
[1]; read-out: IC50
  IC50: 0.24 µM
[8]
  remaining at 24 h: > 70%
[3]
  MIC99: > 100 µM
[4]
  MIC99: > 100 µM
[5]
  MIC99: 100 µM (≈ 54.6 µg/mL)
[6]
  CC50 at 24 h: > 64 µM

## Cc1cn(C2CCN(Cc3cc(Oc4ccc(O)cc4)c4ccccc4n3)CC2)c(=O)[nH]c1=O
[1]; read-out: IC50
  IC50: 0.83 µM
[3]
  MIC99: ≥ 100 µM
[4]
  MIC99: > 100 µM
[5]
  MIC99: ≥ 100 µM
[6]
  CC50 at 24 h: > 64 µM

## Cc1cn(C2CCN(Cc3cc(=O)c4ccccc4[nH]3)CC2)c(=O)[nH]c1=O
[1]; read-out: IC50
  IC50: 7.8 µM
[3]
  MIC99: > 100 µM
[4]
  MIC99: > 100 µM
[5]
  MIC99: > 100 µM
[6]
  CC50 at 24 h: > 64 µM

## Cc1cn(C2CCN(c3ccc(CNC(=O)c4ccc([N+](=O)[O-])cc4[N+](=O)[O-])cc3)CC2)c(=O)[nH]c1=O
[1]
  IC50: Nd(Unstable)
[3]
  MIC99: 9.4 µM (≈ 4.78 µg/mL)
[4]
  MIC99: 0.78 µM (≈ 0.397 µg/mL)
[5]
  MIC99: 1.2 µM (≈ 0.61 µg/mL)
[6]
  CC50 at 24 h: > 64 µM

## Cc1cn(C2CCN(Cc3cccc(-c4ccccn4)n3)CC2)c(=O)[nH]c1=O
[1]; read-out: IC50
  IC50: 34 µM
[3]
  MIC99: 12.5 µM (≈ 4.72 µg/mL)
[4]
  MIC99: > 100 µM
[5]
  MIC99: > 100 µM
[6]
  CC50 at 24 h: > 64 µM

## Cc1cn(C2CCN(Cc3cc(OCCO)c4ccccc4n3)CC2)c(=O)[nH]c1=O
[1]; read-out: IC50
  IC50: 2.4 µM
[3]
  MIC99: > 100 µM
[4]
  MIC99: > 100 µM
[5]
  MIC99: > 100 µM
[6]
  CC50 at 24 h: > 64 µM

## Cc1cn(C2CCN(Cc3cc(NCCO)c4ccccc4n3)CC2)c(=O)[nH]c1=O
[1]; read-out: IC50
  IC50: 0.53 µM
[3]
  MIC99: > 100 µM
[4]
  MIC99: > 100 µM
[5]
  MIC99: > 100 µM
[6]
  CC50 at 24 h: > 64 µM

## NNC(=O)c1ccncc1 [ISONIAZID]
[3]
  MIC99: 0.15 µM (≈ 0.0206 µg/mL)
[4]
  MIC99: 0.15 µM (≈ 0.0206 µg/mL)
[5]
  MIC99: 0.15 µM (≈ 0.0206 µg/mL)
